Measured values taken from the NIST ThermoML archive (doi:10.1021/je700578f).
Numbers after ± are expanded uncertainties.

Conditions: Maximal bubble pressure

SMILES | surface tension liquid-gas (353.15 K) [mN/m] | surface tension liquid-gas (373.15 K) [mN/m] | surface tension liquid-gas (393.15 K) [mN/m] | surface tension liquid-gas (413.15 K) [mN/m] | surface tension liquid-gas (433.15 K) [mN/m] | surface tension liquid-gas (453.15 K) [mN/m] | surface tension liquid-gas (473.15 K) [mN/m] | surface tension liquid-gas (303.15 K) [mN/m] | surface tension liquid-gas (313.15 K) [mN/m] | surface tension liquid-gas (323.15 K) [mN/m] | surface tension liquid-gas (333.15 K) [mN/m] | surface tension liquid-gas (343.15 K) [mN/m]
O=C(OCc1ccccc1)c1ccccc1 [benzyl benzoate] | 39.6 ± 1.6 | 37.53 ± 1.5 | 35.33 ± 1.4 | 33.3 ± 1.4 | 31.1 ± 1.3 | 28.95 ± 1.2 | 26.8 ± 1.1 |  |  |  |  | 
CO [methanol] |  |  |  |  |  |  |  | 21.75 ± 0.89 | 20.9 ± 0.86 | 20.04 ± 0.82 | 19.18 ± 0.79 | 18.32 ± 0.75
